US20230143612A1 (Arbutus Biopharma Corporation, priority 2020, published 2023)

Molecular target: PD-L1 His protein / PD-1 Fc protein (Homo sapiens, UniProt Q9NZQ7)
Assay: HTRF Assay (PD-1/PD-L1 interaction)
Format: binding
Details: PD-L1 His 6 nM, PD-1 Fc 6 nM
Summary of the method: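 Compounds tested from 20 μM down to 0.001 μM (3-fold) against 6 nM PD-L1 His and 6 nM PD-1 Fc, 15 min room temperature incubation. Detection after 1 h at room temperature with Tb cryptate anti-6HIS and XL665 anti-human IgG reagents (mixture at 0.35 nM and 6.7 nM), HTRF signal.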

Chain of PD-L1 His protein / PD-1 Fc protein (Q9NZQ7 19-238 limits assumed): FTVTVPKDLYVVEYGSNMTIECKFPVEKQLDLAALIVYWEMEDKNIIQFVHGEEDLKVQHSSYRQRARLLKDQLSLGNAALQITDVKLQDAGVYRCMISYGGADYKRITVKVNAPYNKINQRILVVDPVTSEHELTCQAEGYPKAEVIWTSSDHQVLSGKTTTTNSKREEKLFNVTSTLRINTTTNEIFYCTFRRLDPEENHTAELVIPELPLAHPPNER

Row | Structure (SMILES) | IC50 [nM]
1 | COc1nc(-c2cccc(-c3cccc(-c4cnc5c(c4)CNCC(=O)N5)c3Cl)c2Cl)ccc1CNC[C@@H]1CCC(=O)N1 [Example 403, (S)-7-(2,2′-Dichloro-3′-(6-methoxy-5-((((5-oxopyrrolidin-2-yl)methyl)amino)methyl)pyridin-2-yl)-[1,1′-biphenyl]-3-yl)-1,3,4,5-tetrahydro-2H-pyrido[2,3-e][1,4]diazepin-2-one] | 0.1
2 | COc1nc(-c2cccc(-c3cccc(-c4ccn5c(=O)c(CNC[C@@H]6CCC(=O)N6)c(C)nc5c4)c3Cl)c2Cl)cc(F)c1CNC[C@@H]1CCC(=O)N1 [Example 404, 8-(2,2′-Dichloro-3′-(4-fluoro-6-methoxy-5-(((((S)-5-oxopyrrolidin-2-yl)methyl)amino)methyl)pyridin-2-yl)-[1,1′-biphenyl]-3-yl)-2-methyl-3-(((((S)-5-oxopyrrolidin-2-yl)methyl)amino)methyl)-4H-pyrido[1,2-a]pyrimidin-4-one] | 0.1
3 | COc1nc(-c2cccc(-c3cccc(-c4cc5c(=O)n(C)c(CNCC(C)(C)O)nn5c4)c3Cl)c2Cl)ccc1CNC[C@@H]1CCC(=O)N1 [Example 405, (S)-6-(2,2′-Dichloro-3′-(6-methoxy-5-((((5-oxopyrrolidin-2-yl)methyl)amino)methyl)pyridin-2-yl)-[1,1′-biphenyl]-3-yl)-2-(((2-hydroxy-2-methylpropyl)amino)methyl)-3-methylpyrrolo [2,1-f][1,2,4]triazin-4(3H)-one] | 84
4 | COc1nc(-c2cccc(-c3cccc(-c4cc5c(=O)n(C)c(CNCCC(F)(F)F)nn5c4)c3Cl)c2Cl)ccc1CNC[C@@H]1CCC(=O)N1 [Example 406, (S)-6-(2,2′-Dichloro-3′-(6-methoxy-5-((((5-oxopyrrolidin-2-yl)methyl)amino)methyl)pyridin-2-yl)-[1,1′-biphenyl]-3-yl)-3-methyl-2-(((3,3,3-trifluoropropyl)amino)methyl)pyrrolo[2,1-f][1,2,4]triazin-4(3H)-one] | 33
5 | COc1nc(-c2cccc(-c3cccc(-c4ccn5c(=O)c(CNC[C@H]6C[C@H]6CO)cnc5c4)c3Cl)c2Cl)ccc1CNC[C@@H]1CCC(=O)N1 [Example 408, 8-(2,2′-Dichloro-3′-(6-methoxy-5-(((((S)-5-oxopyrrolidin-2-yl)methyl)amino)methyl)pyridin-2-yl)-[1,1′-biphenyl]-3-yl)-3-(((((1S,2R)-2-(hydroxymethyl)cyclopropyl)methyl)amino)methyl)-4H-pyrido[1,2-a]pyrimidin-4-one] | 1.1
6 | COc1nc(-c2cccc(-c3cccc(-c4ccn5c(=O)c(CNC[C@@H]6C[C@@H]6CO)cnc5c4)c3Cl)c2Cl)ccc1CNC[C@@H]1CCC(=O)N1 [Example 409, 8-(2,2′-Dichloro-3′-(6-methoxy-5-(((((S)-5-oxopyrrolidin-2-yl)methyl)amino)methyl)pyridin-2-yl)-[1,1′-biphenyl]-3-yl)-3-(((((1R,2S)-2-(hydroxymethyl)cyclopropyl)methyl)amino)methyl)-4H-pyrido[1,2-a]pyrimidin-4-one] | 0.2
7 | CN1CCNCc2ccc(-c3cccc(-c4cccc(-c5ccn6c(=O)c(CNC[C@@H]7CCC(=O)N7)cnc6c5)c4Cl)c3Cl)cc21 [Example 410, (S)-8-(2,2′-Dichloro-3′-(1-methyl-2,3,4,5-tetrahydro-1H-benzo[e][1,4]diazepin-8-yl)-[1,1′-biphenyl]-3-yl)-3-((((5-oxopyrrolidin-2-yl)methyl)amino)methyl)-4H-pyrido[1,2-a]pyrimidin-4-one] | 120
8 | COc1nc(-c2cccc(-c3cccc(-c4ccc5c(CNC[C@H](C)O)cn(C)c5n4)c3Cl)c2Cl)ccc1CNC[C@@H]1CCC(=O)N1 [Example 411, (5S)-5-[[[6-[2-Chloro-3-[2-chloro-3-[3-[[[(2S)-2-hydroxypropyl]amino]methyl]-1-methyl-pyrrolo[2,3-b]pyridin-6-yl]phenyl]phenyl]-2-methoxy-3-pyridyl]methylamino]methyl]pyrrolidin-2-one] | 1.6
9 | COc1nc(-c2cccc(-c3cccc(-c4ccc5c(CN(C)CCO)cn(C)c5n4)c3Cl)c2Cl)ccc1CNC[C@@H]1CCC(=O)N1 [Example 412, (5S)-5-[[[6-[2-Chloro-3-[2-chloro-3-[3-[[2-hydroxyethyl(methyl)amino]methyl]-1-methyl-pyrrolo[2,3-b]pyridin-6-yl]phenyl]phenyl]-2-methoxy-3-pyridyl]methylamino]methyl]pyrrolidin-2-one] | 5.2
10 | COc1nc(-c2cccc(-c3cccc(-c4ccc5c(CNC[C@@H]6CCO6)cn(C)c5n4)c3Cl)c2Cl)ccc1CNC[C@@H]1CCC(=O)N1 [Example 413, (5S)-5-[[[6-[2-Chloro-3-[2-chloro-3-[1-methyl-3-[[[(2S)-oxetan-2-yl]methylamino]methyl]pyrrolo[2,3-b]pyridin-6-yl]phenyl]phenyl]-2-methoxy-3-pyridyl]methylamino]methyl]pyrrolidin-2-one] | 190
11 | COc1nc(-c2cccc(-c3cccc(-c4ccc5c(CNCCN6CCCC6=O)cn(C)c5n4)c3Cl)c2Cl)ccc1CNC[C@@H]1CCC(=O)N1 [Example 414, 1-[2-[[6-[2-Chloro-3-[2-chloro-3-[6-methoxy-5-[[[(2S)-5-oxopyrrolidin-2-yl]methylamino]methyl]-2-pyridyl]phenyl]phenyl]-1-methyl-pyrrolo[2,3-b]pyridin-3-yl]methylamino]ethyl]pyrrolidin-2-one] | 170
12 | COc1nc(-c2cccc(-c3cccc(-c4ccc5c(CNC6CCN(C(C)=O)CC6)cn(C)c5n4)c3Cl)c2Cl)ccc1CNC[C@@H]1CCC(=O)N1 [Example 415, (5S)-5-[[[6-[3-[3-[3-[[(1-Acetyl-4-piperidyl)amino]methyl]-1-methyl-pyrrolo[2,3-b]pyridin-6-yl]-2-chloro-phenyl]-2-chloro-phenyl]-2-methoxy-3-pyridyl]methylamino]methyl]pyrrolidin-2-one] | 220
13 | Cn1cc(CNC[C@@H]2CCC(=O)N2)c2ccc(-c3cccc(-c4cccc(-c5ccn6c(=O)c(CNC[C@@H]7CCC(=O)N7)cnc6c5)c4Cl)c3Cl)nc21 [Example 416, 8-[2-Chloro-3-[2-chloro-3-[1-methyl-3-[[[(2S)-5-oxopyrrolidin-2-yl]methylamino]methyl]pyrrolo[2,3-b]pyridin-6-yl]phenyl]phenyl]-3-[[[(2S)-5-oxopyrrolidin-2-yl]methylamino]methyl]pyrido[1,2-a]pyrimidin-4-one] | 71
14 | Cn1cc(CNC[C@@H]2CCC(=O)N2)c2ccc(-c3cccc(-c4cccc(-c5ccc6c(CNC[C@@H]7CCC(=O)N7)cn(C)c6n5)c4Cl)c3Cl)nc21 [Example 417, (5S)-5-[[[6-[2-Chloro-3-[2-chloro-3-[1-methyl-3-[[[(2S)-5-oxopyrrolidin-2-yl]methylamino]methyl]pyrrolo[2,3-b]pyridin-6-yl]phenyl]phenyl]-1-methyl-pyrrolo[2,3-b]pyridin-3-yl]methylamino]methyl]pyrrolidin-2-one] | 32
15 | COc1cc(-c2cccc(-c3cccc(-c4ccc(CNC[C@@H]5CCC(=O)N5)c(OC)n4)c3Cl)c2Cl)cc2c1CN(C[C@H](C)O)CC2 [Example 418, (S)-5-((((6-(2,2′-Dichloro-3′-(2-((S)-2-hydroxypropyl)-8-methoxy-1,2,3,4 tetrahydroisoquinolin-6-yl)-[1,1′-biphenyl]-3-yl)-2-methoxypyridin-3-yl)methyl)amino)methyl)pyrrolidin-2-one] | 23
